Tested on: MV-4-11 cells
Assay: Gene expression microarray analysis (Affymetrix PrimeView) and GSEA
Type: cell-based, human
Design: RFU PODN (11730768_x_at) / Fold change /veh PODN (11730768_x_at) / RFU LINC00158 (11744669_a_at) / Fold change /veh LINC00158 (11744669_a_at) / RFU DUSP10 (11751237_a_at) / Fold change /veh DUSP10 (11751237_a_at) / RFU ID3 (11757404_x_at) / Fold change /veh ID3 (11757404_x_at) / RFU PLEKHG5 (11737974_s_at) / Fold change /veh PLEKHG5 (11737974_s_at) / RFU LRRC4B (11730491_at) / Fold change /veh LRRC4B (11730491_at) / RFU GIMAP4 (11747438_a_at) / Fold change /veh GIMAP4 (11747438_a_at) / RFU KRT8 (11758183_x_at) / Fold change /veh KRT8 (11758183_x_at) / RFU CNN1 (11734310_a_at) / Fold change /veh CNN1 (11734310_a_at) / RFU VPS37D (11726825_at) / Fold change /veh VPS37D (11726825_at) / RFU C10orf10 (11716522_x_at) / Fold change /veh C10orf10 (11716522_x_at) / RFU KIR2DL2 /// KIR2DL4 /// KIR2DL5A /// KIR2DL5B /// KIR2DS1 /// KIR2DS2 /// KIR2DS3 /// KIR2DS4 /// KIR3DL3 /// KIR3DL3 /// KIR3DS1 (11738374_at) / Fold change /veh KIR2DL2 /// KIR2DL4 /// KIR2DL5A /// KIR2DL5B /// KIR2DS1 /// KIR2DS2 /// KIR2DS3 /// KIR2DS4 /// KIR3DL3 /// KIR3DL3 /// KIR3DS1 (11738374_at) / RFU C1QL1 (11718748_at) / Fold change /veh C1QL1 (11718748_at) / RFU TMPRSS4 (11747572_a_at) / Fold change /veh TMPRSS4 (11747572_a_at) / RFU HAMP (11756126_x_at) / Fold change /veh HAMP (11756126_x_at) / RFU RNFT2 (11725882_a_at) / Fold change /veh RNFT2 (11725882_a_at) / RFU NR4A2 (11747474_a_at) / Fold change /veh NR4A2 (11747474_a_at) / RFU ABCC12 (11746883_a_at) / Fold change /veh ABCC12 (11746883_a_at) / RFU TMEM136 (11760407_x_at) / Fold change /veh TMEM136 (11760407_x_at) / RFU CLDN22 /// WWC2 (11732394_at) / Fold change /veh CLDN22 /// WWC2 (11732394_at) / RFU HLA-DPB1 (11760878_x_at) / Fold change /veh HLA-DPB1 (11760878_x_at) / RFU SPINT1 (11716480_a_at) / Fold change /veh SPINT1 (11716480_a_at) / RFU GAP43 (11754022_s_at) / Fold change /veh GAP43 (11754022_s_at) / RFU A4GNT (11735810_at) / Fold change /veh A4GNT (11735810_at) / RFU PRB3 (11715151_x_at) / Fold change /veh PRB3 (11715151_x_at) / RFU TUBB4B (11761932_at) / Fold change /veh TUBB4B (11761932_at) / RFU CAPN14 (11732068_a_at) / Fold change /veh CAPN14 (11732068_a_at) / RFU TMCC2 (11721928_a_at) / Fold change /veh TMCC2 (11721928_a_at) / RFU IRGQ (11745062_a_at) / Fold change /veh IRGQ (11745062_a_at) / RFU FAM174B (11720279_a_at) / Fold change /veh FAM174B (11720279_a_at) / RFU TMPRSS4 (11748680_a_at) / Fold change /veh TMPRSS4 (11748680_a_at) / RFU FAM212B (11763350_a_at) / Fold change /veh FAM212B (11763350_a_at) / RFU PLEKHG5 (11743358_a_at) / Fold change /veh PLEKHG5 (11743358_a_at) / RFU ZSCAN30 (11745921_a_at) / Fold change /veh ZSCAN30 (11745921_a_at) / RFU CMKLR1 (11741424_a_at) / Fold change /veh CMKLR1 (11741424_a_at) / RFU LOC101060620 /// MAPK8IP1 (11723275_at) / Fold change /veh LOC101060620 /// MAPK8IP1 (11723275_at) / RFU SPTSSB (11747773_x_at) / Fold change /veh SPTSSB (11747773_x_at) / RFU PRSS12 (11739890_at) / Fold change /veh PRSS12 (11739890_at) / RFU BIN1 (11741810_x_at) / Fold change /veh BIN1 (11741810_x_at) / RFU WNT11 (11732464_a_at) / Fold change /veh WNT11 (11732464_a_at) / RFU C10orf10 (11716521_a_at) / Fold change /veh C10orf10 (11716521_a_at) / RFU C5orf56 (11738089_at) / Fold change /veh C5orf56 (11738089_at) / RFU CYB561 (11721691_x_at) / Fold change /veh CYB561 (11721691_x_at) / RFU ANKRD19P (11752326_a_at) / Fold change /veh ANKRD19P (11752326_a_at) / RFU OR2T12 /// OR2T33 /// OR2T8 (11738714_s_at) / Fold change /veh OR2T12 /// OR2T33 /// OR2T8 (11738714_s_at) / RFU VCAN (11748164_a_at) / Fold change /veh VCAN (11748164_a_at) / RFU JSRP1 (11732532_at) / Fold change /veh JSRP1 (11732532_at) / RFU KRTAP10-11 (11738290_x_at) / Fold change /veh KRTAP10-11 (11738290_x_at) / RFU MYO3A (11730013_a_at) / Fold change /veh MYO3A (11730013_a_at) / RFU EBF3 (11725865_a_at) / Fold change /veh EBF3 (11725865_a_at) / RFU CAMK2N1 (11719241_x_at) / Fold change /veh CAMK2N1 (11719241_x_at) / RFU C5orf56 (11738088_a_at) / Fold change /veh C5orf56 (11738088_a_at) / RFU OLFML3 (11715873_a_at) / Fold change /veh OLFML3 (11715873_a_at) / RFU LOC100653217 /// NTM (11731650_a_at) / Fold change /veh LOC100653217 /// NTM (11731650_a_at) / RFU MAPK11 (11762145_a_at) / Fold change /veh MAPK11 (11762145_a_at) / RFU FIZ1 (11724087_x_at) / Fold change /veh FIZ1 (11724087_x_at) / RFU OASL (11726364_x_at) / Fold change /veh OASL (11726364_x_at) / RFU SOX15 (11748057_x_at) / Fold change /veh SOX15 (11748057_x_at) / RFU CD79A (11719716_a_at) / Fold change /veh CD79A (11719716_a_at) / RFU HIST1H1D (11736915_at) / Fold change /veh HIST1H1D (11736915_at) / RFU CASKIN2 (11723855_a_at) / Fold change /veh CASKIN2 (11723855_a_at) / RFU LOC730098 (11760151_x_at) / Fold change /veh LOC730098 (11760151_x_at) / RFU OR4N2 (11742367_at) / Fold change /veh OR4N2 (11742367_at) / RFU PRRT2 (11749266_a_at) / Fold change /veh PRRT2 (11749266_a_at) / RFU SNX32 (11753110_a_at) / Fold change /veh SNX32 (11753110_a_at) / RFU CDHR5 (11726645_a_at) / Fold change /veh CDHR5 (11726645_a_at) / RFU RCAN1 (11760418_a_at) / Fold change /veh RCAN1 (11760418_a_at) / RFU FAM167A (11723789_a_at) / Fold change /veh FAM167A (11723789_a_at) / RFU FAM26E (11764081_at) / Fold change /veh FAM26E (11764081_at) / RFU ISYNA1 (11749810_s_at) / Fold change /veh ISYNA1 (11749810_s_at) / RFU ACY1 (11761880_at) / Fold change /veh ACY1 (11761880_at) / RFU 11764098_at / Fold change /veh 11764098_at / RFU SAMD14 (11745864_x_at) / Fold change /veh SAMD14 (11745864_x_at) / RFU NPB (11741838_a_at) / Fold change /veh NPB (11741838_a_at) / RFU TMPRSS6 (11731388_a_at) / Fold change /veh TMPRSS6 (11731388_a_at) / RFU KRTAP10-2 (11738614_at) / Fold change /veh KRTAP10-2 (11738614_at) / RFU ARHGAP8 /// PRR5-ARHGAP8 (11727945_x_at) / Fold change /veh ARHGAP8 /// PRR5-ARHGAP8 (11727945_x_at) / RFU KRTAP5-7 /// NADSYN1 (11734609_at) / Fold change /veh KRTAP5-7 /// NADSYN1 (11734609_at) / RFU RASL12 (11751679_a_at) / Fold change /veh RASL12 (11751679_a_at) / RFU CDKN2B (11736163_a_at) / Fold change /veh CDKN2B (11736163_a_at) / RFU PRF1 (11729649_at) / Fold change /veh PRF1 (11729649_at) / RFU, ZNF638 /// ZNF638-IT1 / Fold change vs veh, ZNF638 /// ZNF638-IT1 / RFU, PANK3 / Fold change vs veh, PANK3 / RFU, SH3YL1 / Fold change vs veh, SH3YL1 / RFU, ZEB2 / Fold change vs veh, ZEB2 / RFU, NRIP1 / Fold change vs veh, NRIP1 / RFU, PTTG1IP / Fold change vs veh, PTTG1IP / RFU, CAPN2 / Fold change vs veh, CAPN2 / RFU, MED14 / Fold change vs veh, MED14 / RFU, SNORA58 / Fold change vs veh, SNORA58 / RFU, C1orf63 / Fold change vs veh, C1orf63 / RFU, LRRFIP1 / Fold change vs veh, LRRFIP1 / RFU, NDUFAF7 / Fold change vs veh, NDUFAF7 / RFU, SLC12A2 / Fold change vs veh, SLC12A2 / RFU, IBTK / Fold change vs veh, IBTK / RFU, ESF1 / Fold change vs veh, ESF1 / Fold change vs veh, TMEM50B / RFU, TAOK1 / Fold change vs veh, TAOK1 / RFU, ACBD3 / Fold change vs veh, ACBD3 / RFU, TMA16 / Fold change vs veh, TMA16 / RFU, RWDD3 / Fold change vs veh, RWDD3 / RFU, BCAT1 / Fold change vs veh, BCAT1 / RFU, EDEM3 / Fold change vs veh, EDEM3 / RFU, TMEM33 / Fold change vs veh, TMEM33 / RFU, WDR75 / Fold change vs veh, WDR75 / RFU, AHCTF1 / Fold change vs veh, AHCTF1 / RFU, TFRC / Fold change vs veh, TFRC / RFU, ZDHHC17 / Fold change vs veh, ZDHHC17 / RFU, NOM1 / Fold change vs veh, NOM1 / RFU, ARL8B / Fold change vs veh, ARL8B / RFU, ZBTB11 / Fold change vs veh, ZBTB11 / RFU, TAMM41 / Fold change vs veh, TAMM41 / RFU, KIAA1704 /// LOC100996395 / Fold change vs veh, KIAA1704 /// LOC100996395 / RFU, ING1 / Fold change vs veh, ING1 / RFU, TRMT61B / Fold change vs veh, TRMT61B / RFU, FUBP3 / Fold change vs veh, FUBP3 / RFU, TP53 / Fold change vs veh, TP53 / RFU, TNKS2 / Fold change vs veh, TNKS2 / RFU, ZFP14 / Fold change vs veh, ZFP14 / RFU, ACTR2 / Fold change vs veh, ACTR2 / RFU, PPP3R1 / Fold change vs veh, PPP3R1 / RFU, PIK3R1 / Fold change vs veh, PIK3R1 / RFU, HNRNPA1 / Fold change vs veh, HNRNPA1 / RFU, RNF170 / Fold change vs veh, RNF170 / RFU, ZNF28 / Fold change vs veh, ZNF28 / RFU, RNGTT / Fold change vs veh, RNGTT / RFU, OGT / Fold change vs veh, OGT / RFU, BRD1 / Fold change vs veh, BRD1 / RFU, MARS / Fold change vs veh, MARS / RFU, ZNF655 / Fold change vs veh, ZNF655 / RFU, FAHD1 / Fold change vs veh, FAHD1 / RFU, BDP1 / Fold change vs veh, BDP1 / RFU, LRRCC1 / Fold change vs veh, LRRCC1 / RFU, ARID1A / Fold change vs veh, ARID1A / RFU, ZNF146 / Fold change vs veh, ZNF146 / RFU, ZNF330 / Fold change vs veh, ZNF330 / RFU, GPN3 / Fold change vs veh, GPN3 / RFU, C9orf123 / Fold change vs veh, C9orf123 / RFU, N4BP2L2 / Fold change vs veh, N4BP2L2 / RFU, ARFIP1 / Fold change vs veh, ARFIP1 / RFU, FAM179B / Fold change vs veh, FAM179B / RFU, BCL10 / Fold change vs veh, BCL10 / RFU, UHRF1BP1L / Fold change vs veh, UHRF1BP1L / RFU, BET1 / Fold change vs veh, BET1 / RFU, CNOT2 / Fold change vs veh, CNOT2 / RFU, ZNF268 / Fold change vs veh, ZNF268 / Fold change vs veh, ZNF507 / RFU, DGCR2 / Fold change vs veh, DGCR2 / RFU, WDSUB1 / Fold change vs veh, WDSUB1 / Fold change vs veh, HSP90B1 /// MIR3652 / RFU, ADSS / Fold change vs veh, ADSS / RFU, GK / Fold change vs veh, GK / RFU, ZNF148 / Fold change vs veh, ZNF148 / RFU, TAF9 / Fold change vs veh, TAF9 / RFU, SLC1A5 / Fold change vs veh, SLC1A5 / RFU, SLMO2 / Fold change vs veh, SLMO2 / RFU, ABCC4 / Fold change vs veh, ABCC4 / RFU, LOC101060439 /// RAP1B / Fold change vs veh, LOC101060439 /// RAP1B / RFU, RFX7 / Fold change vs veh, RFX7 / RFU, GTPBP10 / Fold change vs veh, GTPBP10 / RFU, CNEP1R1 / Fold change vs veh, CNEP1R1 / RFU, BIVM-ERCC5 /// ERCC5 / Fold change vs veh, BIVM-ERCC5 /// ERCC5 / RFU, ILF3 / Fold change vs veh, ILF3 / RFU 11762660_at / Fold change /veh 11762660_at / RFU VCAN (11757783_s_at) / Fold change /veh VCAN (11757783_s_at) / RFU DDX43 (11728927_at) / Fold change /veh DDX43 (11728927_at) / RFU KRT8 (11758188_x_at) / Fold change /veh KRT8 (11758188_x_at) / RFU NKD1 (11759106_at) / Fold change /veh NKD1 (11759106_at) / RFU SRD5A1 (11742802_a_at) / Fold change /veh SRD5A1 (11742802_a_at) / RFU TPSAB1 /// TPSB2 (11721975_s_at) / Fold change /veh TPSAB1 /// TPSB2 (11721975_s_at) / RFU GSTM3 (11746129_a_at) / Fold change /veh GSTM3 (11746129_a_at) / RFU IL23R (11737362_x_at) / Fold change /veh IL23R (11737362_x_at) / RFU TMEM51 (11727254_a_at) / Fold change /veh TMEM51 (11727254_a_at) / RFU PIWIL2 (11732686_x_at) / Fold change /veh PIWIL2 (11732686_x_at) / RFU ORM1 (11744905_x_at) / Fold change /veh ORM1 (11744905_x_at) / RFU CCDC152 (11743942_at) / Fold change /veh CCDC152 (11743942_at) / RFU ECM1 (11717891_a_at) / Fold change /veh ECM1 (11717891_a_at) / RFU IL23R (11748794_a_at) / Fold change /veh IL23R (11748794_a_at) / RFU TNFAIP8L3 (11732012_x_at) / Fold change /veh TNFAIP8L3 (11732012_x_at) / RFU MBOAT4 (11741988_at) / Fold change /veh MBOAT4 (11741988_at) / RFU 11764193_at / Fold change /veh 11764193_at / RFU TMEM53 (11763286_at) / Fold change /veh TMEM53 (11763286_at) / RFU MAGEB2 (11727129_at) / Fold change /veh MAGEB2 (11727129_at) / RFU TMEM200A (11744735_a_at) / Fold change /veh TMEM200A (11744735_a_at) / RFU CCDC152 (11751479_a_at) / Fold change /veh CCDC152 (11751479_a_at) / RFU FAM211A (11726209_a_at) / Fold change /veh FAM211A (11726209_a_at) / RFU RGS16 (11746705_a_at) / Fold change /veh RGS16 (11746705_a_at) / RFU VCAN (11755009_s_at) / Fold change /veh VCAN (11755009_s_at) / RFU RHOB (11743442_s_at) / Fold change /veh RHOB (11743442_s_at) / RFU RGS16 (11720943_a_at) / Fold change /veh RGS16 (11720943_a_at) / RFU RGS16 (11720944_at) / Fold change /veh RGS16 (11720944_at) / RFU, VPS4B / Fold change vs veh, VPS4B / RFU, CREB1 / Fold change vs veh, CREB1 / RFU, DNAJC13 / Fold change vs veh, DNAJC13 / RFU, GNAQ / Fold change vs veh, GNAQ / RFU, CDK5R1 / Fold change vs veh, CDK5R1 / RFU, ZRANB3 / Fold change vs veh, ZRANB3 / RFU, CUL4A / Fold change vs veh, CUL4A / RFU, CCNY / Fold change vs veh, CCNY / RFU, UFL1 / Fold change vs veh, UFL1 / RFU, COG3 / Fold change vs veh, COG3 / RFU, DIAPH2 / Fold change vs veh, DIAPH2 / RFU, SKA2 / Fold change vs veh, SKA2 / RFU, AFF3 / Fold change vs veh, AFF3 / RFU, LMF1 / Fold change vs veh, LMF1 / RFU, IPO11 / Fold change vs veh, IPO11 / RFU, DFFB / Fold change vs veh, DFFB / RFU, FOXP1 / Fold change vs veh, FOXP1 / RFU, CARD8 / Fold change vs veh, CARD8 / RFU, STRN3 / Fold change vs veh, STRN3 / RFU, ADK / Fold change vs veh, ADK / RFU, RASSF2 / Fold change vs veh, RASSF2 / RFU, WIPF1 / Fold change vs veh, WIPF1 / RFU, LARP1B / Fold change vs veh, LARP1B / RFU, RASA1 / Fold change vs veh, RASA1 / RFU, RB1 / Fold change vs veh, RB1 / RFU, PPFIA1 / Fold change vs veh, PPFIA1 / RFU, MAT2A / Fold change vs veh, MAT2A / RFU, CCT5 / Fold change vs veh, CCT5 / RFU, WDR92 / Fold change vs veh, WDR92 / RFU, CUX1 / Fold change vs veh, CUX1 / RFU, TTC7A / Fold change vs veh, TTC7A / RFU, TMEM135 / Fold change vs veh, TMEM135 / RFU, DEPTOR / Fold change vs veh, DEPTOR / RFU, CPM / Fold change vs veh, CPM / RFU, DNAJB6 / Fold change vs veh, DNAJB6 / RFU, CACNA2D3 / Fold change vs veh, CACNA2D3 / RFU, DTX4 / Fold change vs veh, DTX4 / RFU, TFCP2 / Fold change vs veh, TFCP2 / RFU, GMCL1 /// GMCL1P1 / Fold change vs veh, GMCL1 /// GMCL1P1 / RFU, AEBP2 / Fold change vs veh, AEBP2 / RFU, SNHG1 /// SNORD22 /// SNORD25 /// SNORD26 /// SNORD27 /// SNORD28 /// SNORD29 /// SNORD31 / Fold change vs veh, SNHG1 /// SNORD22 /// SNORD25 /// SNORD26 /// SNORD27 /// SNORD28 /// SNORD29 /// SNORD31 / Fold change (Aza/veh), C12orf56 (ProbeSet 11735607_a_at) / Fold change (ACY-1035/veh), C12orf56 (ProbeSet 11735607_a_at) / Fold change (Aza/veh), FGFR1OP (ProbeSet 11751329_s_at) / Fold change (ACY-1035/veh), FGFR1OP (ProbeSet 11751329_s_at) / Fold change (Aza/veh), VPS36 (ProbeSet 11739960_a_at) / Fold change (ACY-1035/veh), VPS36 (ProbeSet 11739960_a_at) / RFU SYPL1 (11715823_x_at) / Fold change /veh SYPL1 (11715823_x_at) / RFU IGFBP7 (11715501_s_at) / Fold change /veh IGFBP7 (11715501_s_at) / RFU REEP3 (11722064_at) / Fold change /veh REEP3 (11722064_at) / RFU IGLL1 (11728026_x_at) / Fold change /veh IGLL1 (11728026_x_at): dose or concentration left out as unconfirmed
Settings: MV-4-11 cells, 48 hours

Nc1ncn([C@@H]2O[C@H](CO)[C@@H](O)[C@H]2O)c(=O)n1 [azacitidine]
RFU WNT11 (11732464_a_at): 6.46 RFU
